Experimental data: US20250099414A1, “COMPOSITIONS AND METHODS FOR TREATING TRIPLE-NEGATIVE BREAST CANCER” (The Board of Regents of the University of Oklahoma, priority 2019, published 2025)
pIC50, pKd: −log10 of the molar value. Entries after “also recorded” stand apart in the source; their conditions may differ. Like-named read-outs stand apart in the source and are kept apart here.

Tests used:
EMT6 = assay: ANXA5-CMB TNBC cell cytotoxicity, EMT6; format: cell-based, murine; conditions: 24 hours
From the text: (§1) While the cytotoxic activity of the ANXA5-CMB conjugate is excellent against TNBC cells, the cytotoxicity of the conjugate must be tested against healthy vascular and mammary cells.

4T1 = assay: ANXA5-CMB TNBC cell cytotoxicity, 4T1; format: cell-based, murine; conditions: 24 hours
From the text: as §1

healthy MCF10A cells = assay: ANXA5-DM1 and ANXA5 cell viability assay (AlamarBlue), healthy mammary cells; conditions: for pIC50: read-out: IC50, cell viability, 72 h, 100% confluent cells
EMT6 cells [1] = assay: Immunogenic cell death: calreticulin surface expression (flow cytometry); format: cell-based, murine; conditions: 10 nM DM1; 24 h
Procedure: To determine if ANXA5-DM1 induces calreticulin surface expression, flow cytometry was utilized. EMT6 and 4T1 cells were seeded at 25,000 cells/well in 24 well plates and treated 24 h after seeding. […] After 24 h, media was collected into microcentrifuge tubes to collect dead cells. To ensure there would be enough cells, three wells were combined to be one sample. Cells in the plates were then washed with PBS, and 100 μL of trypsin was added to each well. Once 90% of the cells were removed from the plate (2-5 min), cells were added to the microcentrifuge tubes and centrifuged at 500×g for 5 min. Cells were resuspended in 200 μL of 0.5% BSA-PBS and counted to have at least 100,000 cells per sample. Cells were then fixed with 4% paraformaldehyde (PFA, Thermo Fisher Scientific, Waltham MA, USA) for 20 min at 4° C. Cells were then washed two times with 500 μl of 0.5% BSA-PBS at 500×g for 5 minutes. […] After incubation, cells were analyzed on a BD Biosciences Accuri C6 flow cytometer (Franklin Lakes, New Jersey, USA) with excitation at 488 nm, and a 533/30 bandpass filter was used to capture 10,000 gated events per sample. Data was collected and analyzed with BD C6 Accuri software. One sample was composed of three wells, and each sample was analyzed three times. […]

EMT6 cells [2] = assay: Immunogenic cell death: ATP release (luminescence kit); format: cell-based, murine; conditions: 24 h
Procedure: To determine if ANXA5-DM1 induces ATP release from cells after treatment, an ATP luminescence kit (Molecular Probes, Eugene, OR, USA) was utilized according to the manufacturer's instructions. […] After 24 h, 10 μL of cell media was added to 90 μL of standard reaction solution in a white plate. Luminescence reading was obtained from the plate reader, and ATP concentration was calculated by comparing the luminescence reading to a standard curve.

EMT6 cells [3] = assay: ICD study: cytotoxicity (cell death) after 24 hours; format: cell-based, murine; conditions: 10 nM DM1
mouse EMT6 TNBC cells = conditions: for pIC50: read-out: IC50, cell viability, 72 h, concentration of DM1 as free drug or in the conjugate, 2 mM calcium
HUVEC cells = assay: ANXA5-CMB healthy cell cytotoxicity (resazurin), HUVEC; conditions: dose up to 100 μM CMB in the conjugate; 90-100% confluency; 2 mM calcium; 24 hours
Procedure: (§2) Cell viability was assayed by a resazurin assay (n=3-6). […] Cells were treated with 0-100 μM of CMB in the ANXA5-CMB conjugate in growth media fully supplemented with 2 mM calcium to promote ANXA5 binding. After 72 hours, an Alamar Blue assay was utilized to determine viability. Percent viability was determined by comparing treatment groups to the untreated control (0 μM).
(§3) Cells were treated with 0-100 μM CMB in the ANXA5-CMB conjugate in fully supplemented growth medium with 2 mM calcium. Cells were grown to 90-100% confluency. […] Cell viability was measured via an Alamar Blue assay and viability was compared to the control (0 μM) after 24 hours. Data is presented as mean±SD (n=4-8). Cells were treated with 0-100 μM CMB in the ANXA5-CMB conjugate in fully supplemented growth medium with 2 mM calcium. Cells were grown to 90-100% confluency. […] Cell viability was measured via an Alamar Blue assay and viability was compared to the control (μM) after 24 hours. Data is presented as mean±SD (n=4-8).

MCF10A cells = assay: ANXA5-CMB healthy cell cytotoxicity (resazurin), MCF10A; format: cell-based, human; conditions: 90-100% confluency; 2 mM calcium; 24 hours
Procedure: as §2, §3

murine TNBC cells = assay: ANXA5-CMB TNBC cell cytotoxicity, statements on both lines together; format: cell-based; conditions: at 1 μM
From the text: as §1

[4] = test system: 4T1-strain TNBC cells with PS externalization; assay: ANXA5 colorimetric binding (modified indirect ELISA), 4T1; set-up: species or system murine; conditions: 0-20 nM biotinylated ANXA5; 2 mM Ca2+; read-out: dissociation constant of the specific binding
Procedure: (§4) Binding strength was analyzed via a modified indirect ELISA. Cells (50,000 cells/well) were grown onto 24 well plates and fixed with 0.025% glutaraldehyde once cancer cells were 70-80% confluent, or MCF10A noncancerous cells were 100% confluent. Cancer cells were blocked with 0.5% BSA for 1 h at 37° C. Cells were incubated with 0-20 nM of biotinylated ANXA5 for 2 h at 37° C. and 5% CO2. ANXA5 was biotinylated with a Roche biotin protein labeling kit (Roche, Basel, Switzerland), and the level of biotinylation was quantified with a Pierce Biotin Quantification kit (Pierce Biotechnology, Waltham, MA, USA) per manufacturer's instructions. Cells were washed four times with 0.5% BSA to remove unbound ANXA5. […] The supernatant was collected, and the absorbance was read at 450 nm on a BioTek Synergy HT microtiter plate reader (Winooski, VT). […] The dissociation constant was determined using the nonlinear regression one-site total and nonspecific binding model in GraphPad Prism version 9 software (Graph Pad, San Diego California, USA).
(§5) To confirm the ability of the ANXA5 to bind to PS on the surface of TNBC cells, equilibrium binding experiments with increasing concentrations of biotinylated ANXA5 were used. […] After subtracting out 0 nM ANXA5 background absorbance, the non-specific binding was essentially 0, meaning ANXA5 was not binding to the EMT6 and 4T1 cells when Ca^2+ was absent. […]

[5] = test system: EMT6-strain TNBC cells with PS externalization; assay: ANXA5 colorimetric binding (modified indirect ELISA), EMT6; set-up: species or system murine; conditions: 0-20 nM biotinylated ANXA5; 2 mM Ca2+; read-out: dissociation constant of the specific binding
Procedure: as §4, §5

[6] = test system: healthy MCF10A human breast cells; assay: ANXA5 colorimetric binding (modified indirect ELISA), MCF10A
Procedure: as §4, §5

EMT6 cells [7] = assay: ANXA5-VPA TNBC cytotoxicity (Alamar Blue), EMT6; format: cell-based, murine; conditions: 48 hours, VPA in the conjugate or free VPA, 10^−4 to 10 mM
Procedure: (§6) After confirming the conjugation of VPA to ANXA5, the cytotoxicity of the ANXA5-VPA conjugate was tested in two murine TNBC cell lines (EMT6 and 4T1). […] EMT6 and 4T1 cells were seeded at 5,000 cells/well in 96 well plates and treated 48 hours after seeding. Cells were treated with 10^−4 to 10 mM of VPA in the ANXA5-VPA conjugate or free VPA growth medium fully supplemented with 2 mM of calcium to promote ANXA5 binding. After 48 hours, cell viability was analyzed via a fluorescent Alamar Blue assay. Percent viability was determined by normalizing the control (0 mM VPA) to 100% and comparing each treatment group to the control (n=3).

4T1 cells = assay: ANXA5-VPA TNBC cytotoxicity (Alamar Blue), 4T1; format: cell-based, murine; conditions: 48 hours, VPA in the conjugate or free VPA, 10^−4 to 10 mM
Procedure: as §6

[8] = test system: murine TNBC cell lines (EMT6 and 4T1); assay: ANXA5-VPA TNBC cytotoxicity, statement on both lines together; format: cell-based; conditions: 48 hours
Procedure: as §6

[9] = cited from earlier work
[10] = read-out: IC50, cell viability, 72 h, concentration of DM1 as free drug or in the conjugate, 2 mM calcium

O=C(O)CCCc1ccc(N(CCCl)CCCl)cc1 [CMB, Chlorambucil, reference compound]
pIC50 (EMT6; Mus musculus, EMT6): 3.99 | pIC50 (4T1; Mus musculus, 4T1): 3.81

ANXA5-DM1: mertansine (DM1) linked to lysine residues of recombinant annexin A5 with the crosslinker sulfo-SMCC
cytotoxicity to healthy breast cells (healthy MCF10A cells; 100% confluence, compared with free DM1, doses up to 48 μM): significantly less cytotoxic; also recorded: does not have cytotoxic effects | pIC50 (healthy MCF10A cells; concentration of DM1): < 5.30 | pIC50 (healthy MCF10A cells; doses up to 48 μM): < 4.32 | calreticulin surface expression (median fluorescent intensity) (EMT6 cells [1]): significantly increased calreticulin surface expression; also recorded: significant increase | ATP release (EMT6 cells [2]; 10 nM DM1, versus free DM1 or control): significantly increased ATP release; also recorded: significant increase | ATP released relative to free DM1 (EMT6 cells [2]; 10 nM): ~10 times | cell death (cytotoxicity) (EMT6 cells [3]): significantly increased cell death | potency (IC50) relative to free DM1 (mouse 4T1 TNBC cells; 72 h viability assay): more than 2 orders of magnitude | pIC50 (mouse 4T1 TNBC cells; [10]): 9.07 | pIC50 (mouse 4T1 TNBC cells; read-out: equivalent IC50 based on the ANXA5 concentration, assuming 4 moles DM1 per mole ANXA5, from 0.85 nM DM1): 9.68 | potency (IC50) relative to free DM1 (mouse EMT6 TNBC cells; 72 h viability assay): more than 2 orders of magnitude | pIC50 (mouse EMT6 TNBC cells): 9.68

ANXA5-CMB: chlorambucil linked to ANXA5 lysine residues via EDC crosslinking chemistry
pIC50 (EMT6): 6.38 | IC50 ratio (CMB / ANXA5-CMB) (EMT6): 241 | effect on cell viability (HUVEC cells): did not impact viability | pIC50 (MCF10A cells): 5.22 | cytotoxicity (murine TNBC cells): 100% | pIC50 (4T1): 5.57 | IC50 ratio (CMB / ANXA5-CMB) (4T1): 57

ANXA5: recombinant annexin A5 produced in E. coli; binds phosphatidylserine in a Ca2+-dependent manner
pKd [4]: 8.64 | pKd [5]: 8.94 | dissociation constant (Kd) ([6]; cells grown to confluence): not detectable | specific binding of ANXA5 to the cells ([6]; total minus nonspecific binding): no specific binding; also recorded: no ANXA5-PS binding was observed

ANXA5-VPA
pIC50 (EMT6 cells [7]; read-out: IC50 concentration): ~5.00 | pIC50 (4T1 cells; read-out: IC50 concentration): ~5.00 | lowest dose with significantly increased cell death compared to the free drug control [8]: 97 nM

COc1cc2cc(c1Cl)N(C)C(=O)C[C@H](OC(=O)[C@H](C)N(C)C(=O)CCS)[C@]1(C)O[C@H]1[C@H](C)[C@@H]1C[C@@](O)(NC(=O)O1)[C@H](OC)/C=C/C=C(\C)C2 [DM1, Mertansine, reference compound]
pIC50 (healthy MCF10A cells; concentration of DM1): 6.80 | cell death (cytotoxicity) (EMT6 cells [3]): significantly increased cell death | pIC50 (mouse 4T1 TNBC cells; [10]): 6.49 | pIC50 (mouse EMT6 TNBC cells): 7.55

CCCC(CCC)C(=O)O [VPA, Valproic acid]
IC50 concentration (EMT6 cells [7]): could not be obtained with a dose of up to 10 mM; also recorded: could not be calculated | IC50 concentration (4T1 cells): could not be obtained with a dose of up to 10 mM; also recorded: could not be calculated | pIC50 ([9]; 72-96 hours, read-out: concentration required to achieve an IC50 value): < 3.00 | dose required to be effective in vitro ([9]; delivered alone, after 72 hours): 1 to 10 mM
